Experimental data from ChEMBL document CHEMBL3045535, “Evaluation of lufenuron as a chemosterilant against fruit flies of the genus Anastrepha (Diptera: Tephritidae)” (2010).
Active and inactive are the calls of the source. The rule behind the calls is not given here.

How the values were obtained:
Anastrepha striata [1] = assay: Reduction of fertility in 7 days old adult of Anastrepha striata assessed as reduction of egg hatching at 0.1 mg/g treated with diet measured after 3 days oviposition; assay type: functional; design: scale not given: the % may be the effect or the level left
Anastrepha striata [2] = assay: Effect on fertility in 7 days old adult female of Anastrepha striata at 30 mg/g treated with diet after 24 hr in presence of untreated adult male of Anastrepha striata; assay type: functional, organism-based
Anastrepha ludens [3] = assay: Reduction of fertility in 7 days old adult of Anastrepha ludens assessed as reduction of egg hatching at 0.1 mg/g treated with diet measured after 5 days oviposition; assay type: functional; design: scale not given: the % may be the effect or the level left
Anastrepha ludens [4] = assay: Reduction of fertility in 7 days old adult of Anastrepha ludens assessed as reduction of egg hatching at 0.1 mg/g treated with diet measured after 7 days oviposition; assay type: functional; design: scale not given: the % may be the effect or the level left
Anastrepha ludens [5] = assay: Reduction of fertility in 7 days old adult of Anastrepha ludens assessed as reduction of egg hatching at 5 mg/g treated with diet measured after 9 days oviposition; assay type: functional; design: scale not given: the % may be the effect or the level left
Anastrepha ludens [6] = assay: Effect on fertility in 7 days old adult male of Anastrepha ludens at 30 mg/g treated with diet after 24 hr in presence of untreated adult female of Anastrepha ludens; assay type: functional, organism-based
Anastrepha striata [7] = assay: Reduction of fertility in 7 days old adult of Anastrepha striata assessed as reduction of egg hatching at 0.5 mg/g treated with diet measured after 9 days oviposition; assay type: functional; design: scale not given: the % may be the effect or the level left
Anastrepha serpentina [8] = assay: Reduction of fertility in 7 days old adult of Anastrepha serpentina assessed as reduction of egg hatching at 0.1 mg/g treated with diet measured after 1 day oviposition; assay type: functional; design: scale not given: the % may be the effect or the level left
Anastrepha obliqua [9] = assay: Reduction of fertility in 7 days old adult of Anastrepha obliqua assessed as reduction of egg hatching at 5 mg/g treated with diet measured after 3 days oviposition; assay type: functional; design: scale not given: the % may be the effect or the level left
Anastrepha obliqua [10] = assay: Reduction of fertility in 7 days old adult of Anastrepha obliqua assessed as reduction of egg hatching at 10 mg/g treated with diet measured after 5 days oviposition; assay type: functional; design: scale not given: the % may be the effect or the level left
Anastrepha striata [11] = assay: Reduction of fertility in 7 days old adult of Anastrepha striata assessed as reduction of egg hatching at 30 mg/g treated with diet measured after 11 days oviposition; assay type: functional; design: scale not given: the % may be the effect or the level left
Anastrepha striata [12] = assay: Reduction of fertility in 7 days old adult of Anastrepha striata assessed as reduction of egg hatching at 0.1 mg/g treated with diet measured after 9 days oviposition; assay type: functional; design: scale not given: the % may be the effect or the level left
Anastrepha ludens [13] = assay: Reduction of fertility in 7 days old adult of Anastrepha ludens assessed as reduction of egg hatching at 30 mg/g treated with diet measured after 3 days oviposition; assay type: functional; design: scale not given: the % may be the effect or the level left
Anastrepha serpentina [14] = assay: Reduction of fertility in 7 days old adult of Anastrepha serpentina assessed as reduction of egg hatching at 0.1 mg/g treated with diet measured after 7 days oviposition; assay type: functional; design: scale not given: the % may be the effect or the level left
Anastrepha ludens [15] = assay: Reduction of fertility in 7 days old adult of Anastrepha ludens assessed as reduction of egg hatching at 1 mg/g treated with diet measured after 9 days oviposition; assay type: functional; design: scale not given: the % may be the effect or the level left
Anastrepha serpentina [16] = assay: Reduction of fertility in 7 days old adult of Anastrepha serpentina assessed as reduction of egg hatching at 30 mg/g treated with diet measured after 11 days oviposition; assay type: functional; design: scale not given: the % may be the effect or the level left
Anastrepha striata [17] = assay: Reduction of fertility in 7 days old adult of Anastrepha striata assessed as reduction of egg hatching at 1 mg/g treated with diet measured after 7 days oviposition; assay type: functional; design: scale not given: the % may be the effect or the level left
Anastrepha serpentina [18] = assay: Effect on fecundity in 7 days old adult male of Anastrepha serpentina at 30 mg/g treated with diet after 24 hr in presence of untreated adult female of Anastrepha serpentina; assay type: functional, organism-based
Anastrepha obliqua [19] = assay: Reduction of fertility in 7 days old adult of Anastrepha obliqua assessed as reduction of egg hatching at 30 mg/g treated with diet measured after 3 days oviposition; assay type: functional; design: scale not given: the % may be the effect or the level left
Anastrepha ludens [20] = assay: Effect on fecundity in 7 days old adult male of Anastrepha ludens at 30 mg/g treated with diet after 24 hr in presence of untreated adult female of Anastrepha ludens; assay type: functional, organism-based
Anastrepha obliqua [21] = assay: Reduction of fertility in 7 days old adult of Anastrepha obliqua assessed as reduction of egg hatching at 0.5 mg/g treated with diet measured after 7 days oviposition; assay type: functional; design: scale not given: the % may be the effect or the level left
Anastrepha striata [22] = assay: Effect on fecundity in 7 days old adult of Anastrepha striata at 0.1 to 30 mg/g treated with diet after 24 hr; assay type: functional, organism-based
Anastrepha ludens [23] = assay: Reduction of fertility in 7 days old adult of Anastrepha ludens assessed as reduction of egg hatching at 0.5 mg/g treated with diet measured after 3 days oviposition; assay type: functional; design: scale not given: the % may be the effect or the level left
Anastrepha striata [24] = assay: Reduction of fertility in 7 days old adult of Anastrepha striata assessed as reduction of egg hatching at 5 mg/g treated with diet measured after 7 days oviposition; assay type: functional; design: scale not given: the % may be the effect or the level left
Anastrepha serpentina [25] = assay: Reduction of fertility in 7 days old adult of Anastrepha serpentina assessed as reduction of egg hatching at 30 mg/g treated with diet measured after 7 days oviposition; assay type: functional; design: scale not given: the % may be the effect or the level left
Anastrepha serpentina [26] = assay: Reduction of fertility in 7 days old adult of Anastrepha serpentina assessed as reduction of egg hatching at 0.1 mg/g treated with diet measured after 11 days oviposition; assay type: functional; design: scale not given: the % may be the effect or the level left
Anastrepha striata [27] = assay: Reduction of fertility in 7 days old adult of Anastrepha striata assessed as reduction of egg hatching at 1 mg/g treated with diet measured after 5 days oviposition; assay type: functional; design: scale not given: the % may be the effect or the level left
Anastrepha ludens [28] = assay: Reduction of fertility in 7 days old adult of Anastrepha ludens assessed as reduction of egg hatching at 30 mg/g treated with diet measured after 7 days oviposition; assay type: functional; design: scale not given: the % may be the effect or the level left
Anastrepha obliqua [29] = assay: Reduction of fertility in 7 days old adult of Anastrepha obliqua assessed as reduction of egg hatching at 30 mg/g treated with diet measured after 11 days oviposition; assay type: functional; design: scale not given: the % may be the effect or the level left
Anastrepha obliqua [30] = assay: Reduction of fertility in 7 days old adult of Anastrepha obliqua assessed as reduction of egg hatching at 10 mg/g treated with diet measured after 9 days oviposition; assay type: functional; design: scale not given: the % may be the effect or the level left
Anastrepha obliqua [31] = assay: Reduction of fertility in 7 days old adult of Anastrepha obliqua assessed as reduction of egg hatching at 0.1 mg/g treated with diet measured after 11 days oviposition; assay type: functional; design: scale not given: the % may be the effect or the level left
Anastrepha ludens [32] = assay: Effect on fecundity in 7 days old adult of Anastrepha ludens at 0.1 to 30 mg/g treated with diet after 24 hr; assay type: functional, organism-based
Anastrepha obliqua [33] = assay: Reduction of fertility in 7 days old adult of Anastrepha obliqua assessed as reduction of egg hatching at 5 mg/g treated with diet measured after 11 days oviposition; assay type: functional; design: scale not given: the % may be the effect or the level left
Anastrepha obliqua [34] = assay: Reduction of fertility in 7 days old adult of Anastrepha obliqua assessed as reduction of egg hatching at 0.1 mg/g treated with diet measured after 1 day oviposition; assay type: functional; design: scale not given: the % may be the effect or the level left
Anastrepha serpentina [35] = assay: Reduction of fertility in 7 days old adult of Anastrepha serpentina assessed as reduction of egg hatching at 1 mg/g treated with diet measured after 9 days oviposition; assay type: functional; design: scale not given: the % may be the effect or the level left
Anastrepha ludens [36] = assay: Reduction of fertility in 7 days old adult of Anastrepha ludens assessed as reduction of egg hatching at 0.1 mg/g treated with diet measured after 1 day oviposition; assay type: functional; design: scale not given: the % may be the effect or the level left
Anastrepha ludens [37] = assay: Reduction of fertility in 7 days old adult of Anastrepha ludens assessed as reduction of egg hatching at 0.1 mg/g treated with diet measured after 3 days oviposition; assay type: functional; design: scale not given: the % may be the effect or the level left
Anastrepha obliqua [38] = assay: Reduction of fertility in 7 days old adult of Anastrepha obliqua assessed as reduction of egg hatching at 0.1 mg/g treated with diet measured after 9 days oviposition; assay type: functional; design: scale not given: the % may be the effect or the level left
Anastrepha obliqua [39] = assay: Effect on fecundity in 7 days old adult of Anastrepha obliqua at 0.1 to 30 mg/g treated with diet after 24 hr; assay type: functional, organism-based
Anastrepha obliqua [40] = assay: Reduction of fertility in 7 days old adult of Anastrepha obliqua assessed as reduction of egg hatching at 1 mg/g treated with diet measured after 11 days oviposition; assay type: functional; design: scale not given: the % may be the effect or the level left
Anastrepha serpentina [41] = assay: Reduction of fertility in 7 days old adult of Anastrepha serpentina assessed as reduction of egg hatching at 30 mg/g treated with diet measured after 5 days oviposition; assay type: functional; design: scale not given: the % may be the effect or the level left

## O=C(NC(=O)c1c(F)cccc1F)Nc1cc(Cl)c(OC(F)(F)C(F)C(F)(F)F)cc1Cl (racemic) [LUFENURON]
Anastrepha striata [1]
  Activity: 80%
Anastrepha striata [2]
  Activity: inactive
Anastrepha ludens [3]
  Activity: 30.7%
Anastrepha ludens [4]
  Activity: 43.3%
Anastrepha ludens [5]
  Activity: 30.7%
Anastrepha ludens [6]
  Activity: inactive
Anastrepha striata [7]
  Activity: 40.7%
Anastrepha serpentina [8]
  Activity: 98.9%
Anastrepha obliqua [9]
  Activity: 2.7%
Anastrepha obliqua [10]
  Activity: 0%
Anastrepha striata [11]
  Activity: 8%
Anastrepha striata [12]
  Activity: 70.7%
Anastrepha ludens [13]
  Activity: 2.7%
Anastrepha serpentina [14]
  Activity: 96.7%
Anastrepha ludens [15]
  Activity: 20%
Anastrepha serpentina [16]
  Activity: 78%
Anastrepha striata [17]
  Activity: 1.3%
Anastrepha serpentina [18]
  Activity: inactive
Anastrepha obliqua [19]
  Activity: 0%
Anastrepha ludens [20]
  Activity: inactive
Anastrepha obliqua [21]
  Activity: 0.7%
Anastrepha striata [22]
  Activity: Active
Anastrepha ludens [23]
  Activity: 12%
Anastrepha striata [24]
  Activity: 0.7%
Anastrepha serpentina [25]
  Activity: 54.2%
Anastrepha serpentina [26]
  Activity: 80.3%
Anastrepha striata [27]
  Activity: 4.5%
Anastrepha ludens [28]
  Activity: 4%
Anastrepha obliqua [29]
  Activity: 2%
Anastrepha obliqua [30]
  Activity: 0%
Anastrepha obliqua [31]
  Activity: 10.7%
Anastrepha ludens [32]
  Activity: inactive
Anastrepha obliqua [33]
  Activity: 0%
Anastrepha obliqua [34]
  Activity: 14.7%
Anastrepha serpentina [35]
  Activity: 95.6%
Anastrepha ludens [36]
  Activity: 26.7%
Anastrepha ludens [37]
  Activity: 18.7%
Anastrepha obliqua [38]
  Activity: 6%
Anastrepha obliqua [39]
  Activity: inactive
Anastrepha obliqua [40]
  Activity: 0.7%
Anastrepha serpentina [41]
  Activity: 78.4%
